The values below come from patent US20100068174A1, “COMBINATION WITH BIS (THIOHYDRAZIDE AMIDES) FOR TREATING CANCER” (Synta Pharmaceuticals Corp., priority 2006, published 2010).

A short description of series [1]: in vivo. The settings on record: female, SW, mouse, iv. Here is the method:
Tissue samples were prepared by homogenizing a weighed tissue sample in phosphor-buffered saline (PBS, ×1)+1% DTT (×1)+CH3CN (0.1% HCOOH) (×3)), centrifuged at 10,000 rpm×5 min; 150 μL supernatant+90 μL H2O. 100 μL prepared samples were subjected to HPLC, using 5-95% CH3CN (0.1% HCOOH) as the eluent. The running time was 15 min.

Series [2] relates to Stage IV metastatic melanoma patients. Conditions: RECIST, Efficacy Sample.
Method: Patients were treated until progression of the disease. […] The tumor assessments were performed at baseline, Cycle 2, and every other Cycle thereafter.

Take `CN(NC(=O)CC(=O)NN(C)C(=S)C1CC1)C(=S)C1CC1` [Compound (18)]: in series [1], the Kp at 30 min is around 1.64 and the concentration at 30 min was around 51 µM.

As to `CC(=O)O[C@H]1C(=O)[C@@]2(C)[C@H]([C@H](OC(=O)c3ccccc3)[C@]3(O)C[C@H](OC(=O)[C@H](O)[C@@H](NC(=O)c4ccccc4)c4ccccc4)C(C)=C1C3(C)C)[C@]1(OC(C)=O)CO[C@@H]1C[C@@H]2O` [Paclitaxel], in series [2], the “CR + PR (95% CI)” value is given as 3.7% (0.1%,.
